Data: patent US10508120B2, “TYK2 inhibitors and uses thereof” (Nimbus Lakshmi, Inc., priority 2017, dated 2019)
Like-named read-outs stand apart in the source and are kept apart here.

Legend:
[1] = molecular target: human TYK2 (JH2domain-pseudokinase) (Homo sapiens (Human), UniProt P29597); experiment: TYK2 JH2 Domain Binding Assay (KINOMEscan)
In short: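 The construct was human TYK2 G556–D888 fused to the NFkB DNA-binding domain and expressed in HEK293 cells; unpurified extract was incubated with compound and liganded beads for 1 hour at room temperature.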

Tyk2 kinase domain (DH1) = Tyk2 kinase domain (DH1) (Homo sapiens (Human), UniProt P29597); experiment: Tyk2 Radioactive Kinase Assay; format: biochemical; conditions: for inhibition at 10 µM: read-out: Tyk2 JH1% Inhibition @ 10 μM
Chain of Tyk2 kinase domain (DH1) (P29597 897-1176): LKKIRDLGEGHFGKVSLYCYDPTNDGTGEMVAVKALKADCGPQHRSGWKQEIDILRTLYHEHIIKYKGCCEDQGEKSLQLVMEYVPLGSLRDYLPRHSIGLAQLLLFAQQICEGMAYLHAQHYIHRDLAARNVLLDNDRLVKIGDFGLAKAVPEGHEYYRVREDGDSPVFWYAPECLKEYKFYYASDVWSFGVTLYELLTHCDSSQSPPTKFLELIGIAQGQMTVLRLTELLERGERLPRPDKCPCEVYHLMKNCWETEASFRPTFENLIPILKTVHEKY
In short: (§1)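 Values are single-concentration percent inhibition figures. They were obtained with 10 μM compound in a radioactivity-based kinase assay run separately on each enzyme.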

JAK2 kinase domain (JH1) = JAK2 kinase domain (JH1) (Homo sapiens (Human), UniProt O60674); experiment: JAK2 Radioactive Kinase Assay; format: biochemical; conditions: for inhibition at 10 µM: read-out: JAK2 JH1% Inhibition @ 10 μM
Chain of JAK2 kinase domain (JH1) (O60674 849-1124): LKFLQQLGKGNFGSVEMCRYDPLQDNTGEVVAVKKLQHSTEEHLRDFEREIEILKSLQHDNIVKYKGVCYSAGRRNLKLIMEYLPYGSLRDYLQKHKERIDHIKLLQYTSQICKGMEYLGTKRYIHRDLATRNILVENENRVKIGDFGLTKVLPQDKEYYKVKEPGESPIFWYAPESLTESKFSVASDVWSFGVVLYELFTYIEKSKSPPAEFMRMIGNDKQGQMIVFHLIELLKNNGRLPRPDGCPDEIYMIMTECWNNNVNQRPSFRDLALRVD
In short: as §1

[2] = molecular target: Tyk2/JAK2 (heterodimeric complex) (Homo sapiens (Human), UniProt P29597); experiment: IL-12 Induced pSTAT4 in Human PBMC; format: cell-based; conditions: 1.7 ng/mL IL-12
Chain of Tyk2/JAK2 (heterodimeric complex) (P29597 whole entry, other chains not shown): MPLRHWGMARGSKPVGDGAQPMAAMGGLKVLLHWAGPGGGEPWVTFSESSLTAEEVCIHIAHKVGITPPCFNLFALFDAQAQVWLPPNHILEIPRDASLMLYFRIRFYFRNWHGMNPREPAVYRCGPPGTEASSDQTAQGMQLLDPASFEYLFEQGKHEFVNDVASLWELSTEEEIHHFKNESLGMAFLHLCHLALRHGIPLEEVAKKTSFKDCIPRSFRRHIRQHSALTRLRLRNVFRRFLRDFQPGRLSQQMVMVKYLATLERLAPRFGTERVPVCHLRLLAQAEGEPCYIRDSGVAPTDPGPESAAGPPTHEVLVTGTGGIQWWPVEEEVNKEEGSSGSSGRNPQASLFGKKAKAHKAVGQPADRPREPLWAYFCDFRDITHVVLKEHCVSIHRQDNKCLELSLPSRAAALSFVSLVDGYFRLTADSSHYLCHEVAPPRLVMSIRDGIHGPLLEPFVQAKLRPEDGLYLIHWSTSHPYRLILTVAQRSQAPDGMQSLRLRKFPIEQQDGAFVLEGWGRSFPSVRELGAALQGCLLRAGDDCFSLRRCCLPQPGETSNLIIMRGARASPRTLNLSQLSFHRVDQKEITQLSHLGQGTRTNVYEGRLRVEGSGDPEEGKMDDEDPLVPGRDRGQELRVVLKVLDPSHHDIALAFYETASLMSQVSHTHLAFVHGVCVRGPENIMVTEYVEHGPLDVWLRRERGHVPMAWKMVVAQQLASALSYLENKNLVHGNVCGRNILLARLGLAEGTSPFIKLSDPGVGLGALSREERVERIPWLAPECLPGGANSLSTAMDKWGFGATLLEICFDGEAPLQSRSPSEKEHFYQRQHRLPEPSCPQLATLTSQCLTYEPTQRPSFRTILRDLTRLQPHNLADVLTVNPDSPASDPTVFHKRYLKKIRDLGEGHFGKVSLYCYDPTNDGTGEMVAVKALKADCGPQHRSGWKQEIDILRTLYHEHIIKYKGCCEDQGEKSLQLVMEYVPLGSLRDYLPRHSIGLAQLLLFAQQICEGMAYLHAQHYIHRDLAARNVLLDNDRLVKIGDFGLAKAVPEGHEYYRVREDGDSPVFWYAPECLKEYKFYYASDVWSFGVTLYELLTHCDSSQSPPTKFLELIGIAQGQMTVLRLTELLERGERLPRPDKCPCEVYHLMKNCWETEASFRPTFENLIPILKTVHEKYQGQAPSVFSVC
Description: The IL-12 Induced pSTAT4 assay evaluates the inhibition of IL-12 induced STAT4 phophorylation mediated by Tyk2/JAK2 (heterodimeric complex).

[3] = molecular target: JAK2/JAK2 homdimeric complex (Homo sapiens (Human), UniProt O60674); experiment: GM-CSF Induced pSTAT5 in Human PBMC; format: cell-based; conditions: GM-CSF 5 ng/mL for 20 minutes, pSTAT5 by MSD, read-out: PBMC_GMCSF_pSTAT5 IC50
Chain of JAK2/JAK2 homdimeric complex (O60674 whole entry): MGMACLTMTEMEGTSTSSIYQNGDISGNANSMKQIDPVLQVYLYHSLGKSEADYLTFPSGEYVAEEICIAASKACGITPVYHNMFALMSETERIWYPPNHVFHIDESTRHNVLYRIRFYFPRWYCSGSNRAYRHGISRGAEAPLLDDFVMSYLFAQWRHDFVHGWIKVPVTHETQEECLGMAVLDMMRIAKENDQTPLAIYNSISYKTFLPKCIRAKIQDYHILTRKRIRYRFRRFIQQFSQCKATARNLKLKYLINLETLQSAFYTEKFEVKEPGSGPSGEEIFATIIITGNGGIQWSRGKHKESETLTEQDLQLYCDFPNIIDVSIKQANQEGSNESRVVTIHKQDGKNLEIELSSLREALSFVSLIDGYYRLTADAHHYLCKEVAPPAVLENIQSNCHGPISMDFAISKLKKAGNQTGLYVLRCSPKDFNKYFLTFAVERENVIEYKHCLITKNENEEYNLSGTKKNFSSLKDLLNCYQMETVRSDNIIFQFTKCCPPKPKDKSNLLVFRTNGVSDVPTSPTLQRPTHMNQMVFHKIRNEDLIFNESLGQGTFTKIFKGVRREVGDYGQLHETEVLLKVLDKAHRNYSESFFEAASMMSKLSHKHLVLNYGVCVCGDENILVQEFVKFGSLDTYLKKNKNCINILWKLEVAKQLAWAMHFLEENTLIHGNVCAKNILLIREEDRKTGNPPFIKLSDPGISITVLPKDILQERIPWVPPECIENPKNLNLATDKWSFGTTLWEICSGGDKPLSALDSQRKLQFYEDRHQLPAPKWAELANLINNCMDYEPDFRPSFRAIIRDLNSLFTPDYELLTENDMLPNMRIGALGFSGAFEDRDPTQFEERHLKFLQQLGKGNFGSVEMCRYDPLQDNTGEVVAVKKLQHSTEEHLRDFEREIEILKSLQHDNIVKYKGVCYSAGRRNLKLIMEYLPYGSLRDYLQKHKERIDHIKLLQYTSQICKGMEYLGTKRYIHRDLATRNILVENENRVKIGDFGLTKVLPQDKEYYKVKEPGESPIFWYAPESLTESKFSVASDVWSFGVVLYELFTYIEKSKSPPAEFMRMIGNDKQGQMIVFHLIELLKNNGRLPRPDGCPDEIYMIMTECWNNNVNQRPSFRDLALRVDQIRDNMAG
Chain of JAK2/JAK2 homdimeric complex (P32927 17-897 partner): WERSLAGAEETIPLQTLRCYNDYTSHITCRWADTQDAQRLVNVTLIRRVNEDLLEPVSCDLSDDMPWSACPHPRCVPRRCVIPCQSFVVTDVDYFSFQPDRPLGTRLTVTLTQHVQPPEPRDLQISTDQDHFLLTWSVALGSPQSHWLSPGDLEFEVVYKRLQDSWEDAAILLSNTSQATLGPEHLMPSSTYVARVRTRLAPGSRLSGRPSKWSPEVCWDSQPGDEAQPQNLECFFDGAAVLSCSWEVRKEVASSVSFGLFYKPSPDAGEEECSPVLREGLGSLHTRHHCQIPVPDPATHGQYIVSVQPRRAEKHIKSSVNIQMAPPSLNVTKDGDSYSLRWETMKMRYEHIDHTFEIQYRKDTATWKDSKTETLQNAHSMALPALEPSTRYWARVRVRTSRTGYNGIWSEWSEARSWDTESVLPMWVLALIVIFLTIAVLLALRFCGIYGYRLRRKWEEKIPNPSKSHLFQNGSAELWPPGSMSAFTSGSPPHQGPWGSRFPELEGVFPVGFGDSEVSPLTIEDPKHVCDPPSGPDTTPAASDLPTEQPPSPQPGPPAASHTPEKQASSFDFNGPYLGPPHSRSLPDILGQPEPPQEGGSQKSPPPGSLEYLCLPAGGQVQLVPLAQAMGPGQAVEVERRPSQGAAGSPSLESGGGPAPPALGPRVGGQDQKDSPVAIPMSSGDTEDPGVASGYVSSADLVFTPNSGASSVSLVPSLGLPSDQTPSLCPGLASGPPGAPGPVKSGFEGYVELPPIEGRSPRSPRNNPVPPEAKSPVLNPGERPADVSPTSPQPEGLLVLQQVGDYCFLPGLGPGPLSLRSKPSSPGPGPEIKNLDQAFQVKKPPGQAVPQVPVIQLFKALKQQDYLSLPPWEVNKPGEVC

Chain of human TYK2 (JH2domain-pseudokinase) (P29597 556-888): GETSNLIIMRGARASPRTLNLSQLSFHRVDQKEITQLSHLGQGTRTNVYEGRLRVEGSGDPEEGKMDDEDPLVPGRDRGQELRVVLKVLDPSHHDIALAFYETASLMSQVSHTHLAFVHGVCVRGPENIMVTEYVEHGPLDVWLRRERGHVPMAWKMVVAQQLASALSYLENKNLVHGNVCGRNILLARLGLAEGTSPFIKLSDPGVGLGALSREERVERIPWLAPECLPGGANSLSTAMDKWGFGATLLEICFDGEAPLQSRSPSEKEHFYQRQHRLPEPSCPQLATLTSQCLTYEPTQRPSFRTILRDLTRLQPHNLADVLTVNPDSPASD

Row | SMILES | Kd [1] | inhibition at 10 µM (Tyk2 kinase domain (DH1); compound at 10 μM, ATP 10 μM) | inhibition at 10 µM (JAK2 kinase domain (JH1); compound at 10 μM, ATP 10 μM) | IC50 [2] | IC50 [3] | inhibition at 10 µM (Tyk2 kinase domain (DH1); 10 μM compound, 10 μM ATP) | inhibition at 10 µM (JAK2 kinase domain (JH1); 10 μM compound, 10 μM ATP) | Tyk2 JH1% Inhibition @ 10 μM (Tyk2 kinase domain (DH1); compound at 10 μM, ATP 10 μM) | JAK2 JH1% Inhibition @ 10 μM (JAK2 kinase domain (JH1); compound at 10 μM, ATP 10 μM)
1 | CNc1cc(Nc2cccn(-c3ccc(F)cc3)c2=O)nc2c(C(N)=O)cnn12 [I-9] | < 0.2 nM | < 50% | < 50% | 100 to 500 nM |  |  |  |  | 
2 | CNc1cc(Nc2cccn([C@H]3CC[C@](C)(O)CC3)c2=O)nc2c(C(=O)NC3CC3)cnn12 [I-371] | < 0.2 nM | < 50% | < 50% | 100 to 500 nM |  |  |  |  | 
3 | CNc1cc(Nc2cccn(-c3nn(C)cc3C)c2=O)nc2c(C(=O)NC3CC3)cnn12 [I-404] | 0.2 to 1 nM | < 50% | < 50% | > 1000 nM |  |  |  |  | 
4 | CNc1cc(Nc2cccn(-c3nn(C)cc3C)c2=O)nc2c(C(=O)N[C@H]3C[C@H]3F)cnn12 [I-405] | 0.2 to 1 nM | < 50% | < 50% | 100 to 500 nM |  |  |  |  | 
5 | [2H]C([2H])([2H])Oc1ncccc1Nc1cc(NC)n2ncc(C(=O)NC3CC4(COC4)C3)c2n1 [I-417, 5-((2-(methoxy-d3)pyridin-3-yl)amino)-7-(methylamino)-N-(2-oxaspiro[3.3]heptan-6-yl)pyrazolo[1,5-a]pyrimidine-3-carboxamide] |  | < 50% | < 50% | 100 to 500 nM | > 50 µM |  |  |  | 
6 | CNc1cc(Nc2cccc(C3CCCOC3)n2)nc2c(C(=O)N[C@@H]3C[C@@H]3F)cnn12 (stereo partly drawn) [I-522] | < 0.2 nM |  |  | < 100 nM | > 50 µM |  |  |  | 
7 | CNc1cc(Nc2cccn([C@@H]3CCC[C@H](OC)C3)c2=O)nc2c(C(=O)NC3CC3)cnn12 [I-621] |  |  |  | < 100 nM | > 50 µM |  |  | A (percent inhibition at 10 μM lower than 50) | A (percent inhibition at 10 μM lower than 50)
8 | CNc1cc(Nc2cccn(-c3nc(C)co3)c2=O)nc2c(C(=O)N[C@@H]3CC[C@@H]3O)cnn12 [I-706] |  |  |  | < 100 nM | > 50 µM |  |  | A (percent inhibition at 10 μM lower than 50) | A (percent inhibition at 10 μM lower than 50)
9 | CNc1cc(Nc2cccc3ocnc23)nc2c(C(=O)N[C@H]3COC[C@H]3O)cnn12 [I-834] |  |  |  | 100 to 500 nM | > 50 µM | < 50% | < 50% |  | 
10 | CNc1cc(-c2cn(CCN3CCCCC3)c3ncccc23)nc2c(C(=O)N[C@@H]3CC[C@H]3O)cnn12 [I-837] |  |  |  | < 100 nM | > 12.5 µM | < 50% | < 50% |  | 
11 | CNc1cc(Nc2cccc3ocnc23)nc2c(C(=O)N[C@@H]3CC[C@H]3O)cnn12 [I-857] |  |  |  | 100 to 500 nM | > 50 µM | < 50% | < 50% |  | 
12 | CNc1cc(Nc2cccn([C@H]3CCC[C@@H](OC)C3)c2=O)nc2c(C(=O)NCC(C)(C)CO)cnn12 [I-861] | < 0.2 nM |  |  | < 100 nM |  | < 50% | < 50% |  | 
13 | CNc1cc(Nc2cccn(-c3ncccc3F)c2=O)nc2c(C(=O)O)cnn12 [I-893, 5-((3′-fluoro-2-oxo-2H-[1,2′-bipyridin]-3-yl)amino)-7-(methylamino) pyrazolo[1,5-a]pyrimidine-3-carboxylic acid] | 1 to 10 nM |  |  | > 1000 nM |  | < 50% | < 50% |  | 

More lines, main results first:

Row | Kd [1] | inhibition at 10 µM (Tyk2 kinase domain (DH1); compound at 10 μM, ATP 10 μM) | inhibition at 10 µM (JAK2 kinase domain (JH1); compound at 10 μM, ATP 10 μM) | IC50 [2] | IC50 [3] | inhibition at 10 µM (Tyk2 kinase domain (DH1); 10 μM compound, 10 μM ATP) | inhibition at 10 µM (JAK2 kinase domain (JH1); 10 μM compound, 10 μM ATP) | SMILES | Tyk2 JH1% Inhibition @ 10 μM (Tyk2 kinase domain (DH1); compound at 10 μM, ATP 10 μM) | JAK2 JH1% Inhibition @ 10 μM (JAK2 kinase domain (JH1); compound at 10 μM, ATP 10 μM)
14 | < 0.2 nM | < 50% | < 50% | < 100 nM | > 50 µM |  |  | CNc1cc(Nc2cccn(C3CCCOC3)c2=O)nc2c(C(=O)NC3CCC3)cnn12 (racemic) [I-324] |  | 
15 | < 0.2 nM |  |  | < 100 nM | > 50 µM |  |  | CNc1cc(Nc2cccc(C)c2Cl)nc2c(C(N)=O)cnn12 [I-14] |  | 
16 | < 0.2 nM | < 50% | < 50% | < 100 nM |  |  |  | CNc1cc(Nc2cccn([C@@H]3CCCOC3)c2=O)nc2c(C(=O)NC3CC3)cnn12 [I-351] |  | 
17 | < 0.2 nM | < 50% | < 50% | < 100 nM |  |  |  | CNc1cc(Nc2cccn([C@H]3CC[C@@](C)(O)CC3)c2=O)nc2c(C(=O)N[C@H]3C[C@H]3F)cnn12 [I-370] |  | 
18 | < 0.2 nM | < 50% | < 50% | < 100 nM |  |  |  | CNc1cc(Nc2cccn([C@H]3CC[C@](C)(O)CC3)c2=O)nc2c(C(=O)N[C@H]3C[C@H]3F)cnn12 [I-372] |  | 
19 |  |  |  | < 100 nM | > 50 µM |  |  | CNc1cc(Nc2cccnc2OC2CC2)nc2c(C(=O)N[C@H]3CC[C@@H]3O)cnn12 [I-397] | A (percent inhibition at 10 μM lower than 50) | A (percent inhibition at 10 μM lower than 50)
